# From patent US8609635B2, “Fused tricyclic silyl compounds and methods of use thereof for the treatment of viral diseases” (priority 2010, dated 2013)
# What was measured:
# [1] = tested on: HCV replicon gt2a_JFH; test: Cell-based HCV replicon assay (TaqMan), genotype 2a (JFH); settings: Hepatitis C virus, 72 h, replicon 2a (JFH); replicon RNA by TaqMan, day 3
# In short: (§1)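 Replicon cells seeded at 5000 cells/well with compound (10 serial 2-fold dilutions from 250 μM to 1 μM top dose; 0.5% DMSO, 5% FBS) and lysed on day 3. Replicon RNA quantified by multiplex TaqMan RT-PCR (NS5B amplicon, GAPDH control); ΔCT versus concentration fitted to sigmoid dose-response. Chimeras carry patient-isolate NS5A.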
# [2] = tested on: HCV chimeric replicon with NS5A of genotype 3a (NC00982); test: Cell-based HCV replicon assay (TaqMan), chimeric replicon genotype 3a (NC00982); settings: Hepatitis C virus, 72 h, read-out: HCV replicon EC50 3a (NC00982), chimeric replicon 3a (NC00982); replicon RNA by TaqMan, day 3
# In short: as §1
# [3] = tested on: HCV chimeric replicon with NS5A of genotype 4a (DQ41878); test: Cell-based HCV replicon assay (TaqMan), chimeric replicon genotype 4a (DQ41878); settings: Hepatitis C virus, 72 h, read-out: HCV replicon EC50 4a (DQ41878)
# In short: as §1
# [4] = tested on: HCV replicon 1a (Y93H) mutant; test: Cell-based HCV replicon assay (TaqMan), genotype 1a mutant Y93H; settings: Hepatitis C virus, 72 h, read-out: HCV replicon EC50 1a (Y93H)
# In short: as §1
# [5] = Pharmacokinetic analysis in monkeys; type: in vivo, male cynomolgus monkeys; settings: Monkey, dihydrochloride salt, 2 mpk/PO, 1 mpk/IV
# Protocol: Various pharmacokinetic parameters for compound 56 were measured in rats, dogs and monkeys as described below.
# Following an overnight fast, male cynomolgus monkeys were dosed with the dihydrochloride salt of compound 56 orally at 2 mg/kg as a suspension in 0.4% hydroxylpropyl methylcellulose (HPMC) or intravenously at 1 mg/kg as a solution in 20% hydroxypropyl-β-cyclodextrin (20% HPβCD). For oral dosing, the animals dosed by oro-gastric intubation. Monkeys were fed approximately 1 hour before dosing and 4 hours after dosing. Blood samples were collected from the saphenous and/or cephalic vein at 0.25, 0.5, 1, 2, 4, 6, 8, 12, 24, 48, and 72 (PO), and 0.167, 0.25, 0.5, 1, 2, 4, 6, 8, 12, 24, 48, and 72 hrs (IV) post-dosing and centrifuged to generate plasma. The plasma samples were stored at […] until analysis.
# Collected plasma samples were analyzed for the presence of compound 56 using LC-MS/MS as described below.
# The HPLC/API-MS/MS system for the example data consisted of a HPLC pumping system and a auto sampler with the sample tray refrigeration option connected directly to a triple quadrupole mass spectrometer with an API source. Typical HPLC methods for the example data was based on a fast gradient of two solvents: solvent A consisted of 0.1% formic acid in water, and solvent B consisted of 0.1% formic acid in acetonitrile. A fast linear gradient (start at 90% A for 0.2 min, ramp to 95% B from 0.2 to 0.5 min, hold at 95% B […], then ramp back to 90% A from 1.0 to 1.1 min, then hold at, […] from 1.1 to 1.2 min) was used. The flow rate for the HPLC system was set to 1 mL/min throughout the HPLC gradient; the HPLC column was a Halo C18 column (2.7 micron particle size, 50×2.1 mm). The example compounds were analyzed by positive ion atmospheric pressure chemical ionization tandem mass spectrometry (APCI-MS/MS). As a general procedure, selected reaction monitoring (SRM) methods were developed for each compound prior to analysis of the plasma samples. Normally, the individual SRM transitions were based on a fragmentation from the protonated molecule ([MH].) to a characteristic product ion.
# Using the methods described above, the following pharmacokinetic parameters were calculated in rats, dogs and monkeys and the results are summarized in the table below.
smiles,measurement,setting,value
COC(=O)N[C@H](C(=O)N1CC(F)(F)C[C@H]1c1ncc(-c2ccc(-c3ccc4c(ccc5nc([C@@H]6C[Si](C)(C)CN6C(=O)[C@@H](NC(=O)OC)C(C)C)[nH]c54)c3)cc2)[nH]1)C(C)C [Compound 56],EC50,[1],27 pM
same,EC50,[2],350 pM
same,EC50,[3],20 pM
same,EC50,[4],46000 pM
same,Effective Half-Life,[5],17 h
same,Systemic Clearance,[5],1.2 mL/min/kg
same,Volume of Distribution,[5],1.7 L/kg
same,Oral Bioavailability,[5]; dose-normalized AUC between PO and IV,11.7%
